# Source: publication PMC6501426 (Clinical Epigenetics, 2019)
# Key:
# [1] = system: methylated CMV promoter-driven luciferase reporter in KG-1 cells; assay: CMV-luc assay in KG-1 cells; format: cell-based, human; details: KG-1 CMV-luc
# Protocol: The assay was carried out as described by Rilova et al.. The KG-1 cell line was stably transfected with the luciferase firefly (Luc^+ from pGL3 by Promega, Madison, WI, USA) reporter gene under the control of a methylated CMV promoter (from pEGFP-N1 by Clontech) and selected for the maintenance of the methylation of CMV and luciferase expression silencing (KG-1 CMV-luc). The stably integrated KG-1 CMV-luc cells are cultivated in RPMI-1640 medium (Lonza, Strasbourg, France), supplemented with 10% FCS (Lonza, Strasbourg, France) and 0.5 mg/mL of geneticin (Sigma-Aldrich, Saint-Quentin Fallavier, France), under 5% CO2, at 37 °C and seeded at 20,000 cells per well in 96-well plates. After 5 or 24 h of incubation in the presence of compounds or the solvent DMSO, the induction of the promoter is measured by quantification of luciferase with the Brite-lite assay system (PerkinElmer, Villebon-sur-Yvette, France) according to the manufacturer’s protocol. The luminescence is measured on an EnVision™ Multilabel Plate Reader (PerkinElmer, Villebon-sur-Yvette, France), and the data are expressed as fold induction compared to DMSO control. The mean of 2–4 experiments and its standard error are reported.
# Afterwards, MC3353 was tested in KG-1 leukemia cells for its ability to reactivate gene expression in a stably integrated luciferase reporter construction under the control of a CMV promoter inhibited by DNA methylation (CMV-luc assay). After 5 or 24 h of incubation in the presence of drugs at the indicated concentrations, the luciferase signal was measured and normalized to the value of the non-treated cells (Table 2). Since the CMV-luc assay is highly compromised when the tested compounds induce cell death, the cytotoxicity of MC3353 against KG-1 cells at 5 and 24 h was determined in parallel. MC3353 was highly toxic for KG-1 cells after 24 h of treatment starting from a concentration of 1 μM (Additional file 1: Table S1 and indicated in stars in Table 2).
# [2] = system: DNMT3A protein level in PC-3 cells; assay: Western blot of DNMT3A protein in PC-3; format: cell-based, human; details: 24 h; 1 μM requested for the effect
# Description: Cells were lysed in Laemmli buffer; subsequently, the proteins were resolved by sodium dodecyl sulfate-polyacrylamide gel electrophoresis and transferred to a 0.45-μm nitrocellulose membrane (Bio-Rad Laboratories, Hercules, CA). The following primary antibodies were used for immunoblotting: α-E-cadherin (BD Transduction Laboratories, Franklin Lakes, NJ), α-MMP2 (Abcam), α-DNMT3a (Santa Cruz Biotechnologies, Dallas, TX), and α-GAPDH (Millipore Corp., Bedford, MA), used as a loading control. The immune complexes were detected with horseradish peroxidase-conjugated species-specific secondary antiserum (Bio-Rad Laboratories, Milan, Italy) then by enhanced chemiluminescence reaction (Bio-Rad Laboratories, Milan, Italy). Densitometric analysis of protein expression was performed by using the Fiji ImageJ image processing package.
# GAPDH was used as a loading control. Blots are representative of two independent experiments
smiles,measurement,setting,value
"O=C(Nc1ccc(NC(=O)c2ccc(Nc3ccnc4ccccc34)cc2)cc1)OCc1ccccc1 [MC3353, Benzyl (4-(4-(quinolin-4-ylamino)benzamido)phenyl)carbamate]",Luciferase expression (fold ± SD),"[1]; 0.1 μM, 5 h",1.0 ± 0.05 fold
same,Luciferase expression (fold ± SD),"[1]; 0.1 μM, 24 h",1.1 ± 0.1 fold
same,Luciferase expression (fold ± SD),"[1]; 1 μM, 5 h",5.8 ± 0.9 fold
same,Luciferase expression (fold ± SD),"[1]; 1 μM, 24 h",4.4 ± 3.5 fold
same,Luciferase expression (fold ± SD),"[1]; 5 μM, 5 h",6.7 ± 0.8 fold
same,"DNMT3A protein expression level (western blot), PC-3",[2],DNMT3A protein downregulation was observed
